PubChem BioAssay (NCI)
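Five compound concentrations were applied to cells in 96-well plates for 48 hours; endpoints were derived by simple linear interpolation of the resulting dose-response curve. TGI marks complete inhibition of growth.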

Legend:
Test in all cases: inhibition of tumour cell growth, NCI panel, 48 h
[1] = test system: NCI-H23 lung
[2] = test system: NCI-H460 lung
[3] = test system: IGROV1 ovarian
[4] = test system: MDA-MB-231 breast
[5] = test system: HCT-15 colon
[6] = test system: SK-MEL-2 melanoma
[7] = test system: SNB-19 CNS
[8] = test system: SW-620 colon
[9] = test system: HS 578T breast
[10] = test system: MDA-MB-435
[11] = test system: MDA-N
[12] = test system: OVCAR-3 ovarian
[13] = test system: M14 melanoma
[14] = test system: UACC-257 melanoma
[15] = test system: RXF 393 renal
[16] = test system: RPMI-8226 leukemia
[17] = test system: MCF7 breast
[18] = test system: MOLT-4 leukemia
[19] = test system: HOP-62 NSCLC
[20] = test system: A549 NSCLC
[21] = test system: LOX IMVI melanoma
[22] = test system: T-47D breast
[23] = test system: DU-145 prostate
[24] = test system: SK-MEL-28 melanoma
[25] = test system: EKVX NSCLC
[26] = test system: SF-295 CNS
[27] = test system: NCI-H522 lung
[28] = test system: 786-0 renal
[29] = test system: SK-MEL-5 melanoma
[30] = test system: OVCAR-4 ovarian
[31] = test system: UACC-62 melanoma
[32] = test system: MALME-3M melanoma
[33] = test system: TK-10 renal
[34] = test system: CAKI-1 renal
[35] = test system: U251 CNS
[36] = test system: SR leukemia
[37] = test system: CCRF-CEM leukemia
[38] = test system: SF-268 CNS
[39] = test system: NCI/ADR-RES ovarian
[40] = test system: SK-OV-3 ovarian
[41] = test system: OVCAR-8 ovarian
[42] = test system: HCT-116 colon
[43] = test system: OVCAR-5 ovarian
[44] = test system: SNB-75 CNS
[45] = test system: UO-31 renal
[46] = test system: PC-3 prostate
[47] = test system: NCI-H226 lung
[48] = test system: HL-60(TB) leukemia
[49] = test system: BT-549 breast
[50] = test system: SN12C renal
[51] = test system: HT29 colon
[52] = test system: COLO 205 colon
[53] = test system: KM12 colon
[54] = test system: HOP-92 NSCLC
[55] = test system: K-562 leukemia
[56] = test system: ACHN renal
[57] = test system: HCC-2998 colon
[58] = test system: SF-539 CNS
[59] = test system: A498 renal

`Cc1cc(NS(=O)(=O)c2ccc(NC(=O)c3ccc4[nH]c5ccccc5c(=O)c4c3)cc2)no1` was tested, and the TGI [1] was greater than 100 µM, the TGI [2] was greater than 100 µM and the TGI [3] was greater than 100 µM. It also gave a TGI [4] greater than 100 µM, a TGI [5] greater than 100 µM and a TGI [6] greater than 100 µM. The TGI [7] was greater than 100 µM, the TGI [8] was greater than 100 µM and the TGI [9] was greater than 100 µM. The TGI [10] was greater than 100 µM, the TGI [11] was greater than 100 µM and the TGI [12] was greater than 100 µM. The TGI [13] was greater than 100 µM, the TGI [14] was greater than 100 µM and the TGI [15] was 90.7 µM. It also gave a TGI [16] greater than 100 µM, a TGI [17] greater than 100 µM and a TGI [18] greater than 100 µM. It also gave a TGI [19] greater than 100 µM, a TGI [20] greater than 100 µM and a TGI [21] greater than 100 µM. It also gave a TGI [22] greater than 100 µM, a TGI [23] greater than 100 µM and a TGI [24] greater than 100 µM. It also gave a TGI [25] greater than 100 µM, a TGI [26] greater than 100 µM and a TGI [27] greater than 100 µM. For the same compound, the TGI [28] was greater than 100 µM, the TGI [29] was greater than 100 µM and the TGI [30] was greater than 100 µM. The TGI [31] was greater than 100 µM, the TGI [32] was greater than 100 µM and the TGI [33] was greater than 100 µM. The TGI [34] was greater than 100 µM, the TGI [35] was greater than 100 µM and the TGI [36] was greater than 100 µM. It also gave a TGI [37] greater than 100 µM, a TGI [38] greater than 100 µM and a TGI [39] greater than 100 µM. For the same compound, the TGI [40] was greater than 100 µM, the TGI [41] was greater than 100 µM and the TGI [42] was greater than 100 µM. It also gave a TGI [43] greater than 100 µM, a TGI [44] greater than 100 µM and a TGI [45] greater than 100 µM. It also gave a TGI [46] greater than 100 µM, a TGI [47] greater than 100 µM and a TGI [48] greater than 100 µM. For the same compound, the TGI [49] was greater than 100 µM, the TGI [50] was greater than 100 µM and the TGI [51] was greater than 100 µM. For the same compound, the TGI [52] was greater than 100 µM, the TGI [53] was greater than 100 µM and the TGI [54] was greater than 100 µM. The TGI [55] was greater than 100 µM, the TGI [56] was greater than 100 µM and the TGI [57] was greater than 100 µM. For the same compound, the TGI [58] was greater than 100 µM.

`O=C(c1ccco1)N(Cc1ccco1)C(=S)Nc1ccccc1` showed a TGI [1] of 38.1 µM, a TGI [2] of 99.8 µM and a TGI [3] of 42.2 µM. For the same compound, the TGI [4] was 41.1 µM, the TGI [5] was 36.2 µM and the TGI [6] was 42.9 µM. The TGI [7] was greater than 100 µM, the TGI [8] was 32.2 µM and the TGI [9] was 72 µM. For the same compound, the TGI [10] was 30.2 µM, the TGI [11] was 38.1 µM and the TGI [12] was 59.7 µM. For the same compound, the TGI [13] was 28.5 µM, the TGI [14] was 57.6 µM and the TGI [15] was 31.9 µM. It also gave a TGI [16] of 11.7 µM, a TGI [17] of 49 µM and a TGI [18] of 27.6 µM. For the same compound, the TGI [19] was greater than 100 µM, the TGI [20] was greater than 76.8 µM and the TGI [21] was 27.1 µM. It also gave a TGI [22] of 54.1 µM, a TGI [23] greater than 100 µM and a TGI [24] of 33.8 µM. For the same compound, the TGI [25] was greater than 96.5 µM, the TGI [26] was greater than 84.1 µM and the TGI [27] was 37.7 µM. For the same compound, the TGI [28] was 22.7 µM, the TGI [29] was 35.9 µM and the TGI [30] was 68.1 µM. It also gave a TGI [31] of 37.1 µM, a TGI [32] of 44.2 µM and a TGI [33] greater than 77.4 µM. For the same compound, the TGI [34] was 22.1 µM, the TGI [35] was 91 µM and the TGI [36] was 13.2 µM. It also gave a TGI [37] of 18.7 µM, a TGI [38] of 85.3 µM and a TGI [39] of 55.3 µM. It also gave a TGI [40] greater than 100 µM, a TGI [41] of 59.7 µM and a TGI [42] of 30.7 µM. It also gave a TGI [43] greater than 100 µM, a TGI [44] greater than 74.9 µM and a TGI [45] of 32.8 µM. The TGI [46] was greater than 100 µM, the TGI [47] was greater than 100 µM and the TGI [48] was 4.61 µM. For the same compound, the TGI [49] was 36.3 µM, the TGI [50] was 45.4 µM and the TGI [51] was 42.1 µM. For the same compound, the TGI [52] was 26.8 µM, the TGI [53] was greater than 100 µM and the TGI [54] was 30.3 µM. For the same compound, the TGI [55] was 40.8 µM, the TGI [56] was 40.8 µM and the TGI [57] was 98.1 µM. The TGI [58] was 15.4 µM.

In the case of `Cc1ccc(Cc2n[nH]c(=O)n2/N=C\CC/C=N\n2c(Cc3ccc(C)cc3)n[nH]c2=O)cc1`, the TGI [1] is reported as 84.6 µM, the TGI [3] is reported as greater than 100 µM and the TGI [4] is reported as greater than 100 µM. It also gave a TGI [5] greater than 100 µM, a TGI [6] of 80.5 µM and a TGI [7] greater than 100 µM. It also gave a TGI [8] greater than 100 µM, a TGI [9] of 45.5 µM and a TGI [10] greater than 100 µM. The TGI [11] was greater than 100 µM, the TGI [12] was greater than 100 µM and the TGI [13] was greater than 100 µM. For the same compound, the TGI [14] was greater than 100 µM, the TGI [15] was 65.3 µM and the TGI [16] was greater than 100 µM. It also gave a TGI [17] greater than 100 µM, a TGI [18] greater than 100 µM and a TGI [19] of 24.6 µM. For the same compound, the TGI [20] was greater than 100 µM, the TGI [21] was greater than 100 µM and the TGI [22] was greater than 100 µM. The TGI [23] was greater than 100 µM, the TGI [24] was greater than 100 µM and the TGI [25] was greater than 100 µM. For the same compound, the TGI [26] was greater than 100 µM, the TGI [27] was greater than 100 µM and the TGI [28] was 41 µM. The TGI [29] was greater than 100 µM, the TGI [30] was greater than 100 µM and the TGI [31] was greater than 100 µM. It also gave a TGI [32] greater than 100 µM, a TGI [33] greater than 100 µM and a TGI [34] greater than 100 µM. For the same compound, the TGI [35] was 53.7 µM, the TGI [37] was greater than 100 µM and the TGI [38] was 50.9 µM. It also gave a TGI [39] of 49.9 µM, a TGI [40] greater than 100 µM and a TGI [41] of 39.9 µM. It also gave a TGI [42] greater than 100 µM, a TGI [43] greater than 100 µM and a TGI [44] of 34.7 µM. It also gave a TGI [45] greater than 100 µM, a TGI [46] greater than 100 µM and a TGI [59] greater than 100 µM. The TGI [47] was 65.3 µM, the TGI [48] was greater than 100 µM and the TGI [49] was greater than 100 µM. For the same compound, the TGI [50] was greater than 100 µM, the TGI [51] was greater than 100 µM and the TGI [52] was greater than 100 µM. For the same compound, the TGI [53] was greater than 100 µM, the TGI [54] was 76.1 µM and the TGI [55] was greater than 100 µM. The TGI [56] was greater than 100 µM, the TGI [57] was greater than 100 µM and the TGI [58] was 24.9 µM.

In the case of `N#CC1Cc2cc3c(cc21)OCO3` (stereo unspecified), the TGI [1] is reported as greater than 100 µM, the TGI [2] is reported as greater than 100 µM and the TGI [3] is reported as greater than 100 µM. For the same compound, the TGI [4] was greater than 100 µM, the TGI [5] was greater than 100 µM and the TGI [6] was greater than 100 µM. For the same compound, the TGI [7] was greater than 100 µM, the TGI [8] was greater than 100 µM and the TGI [9] was greater than 100 µM. For the same compound, the TGI [10] was greater than 100 µM, the TGI [11] was greater than 100 µM and the TGI [12] was greater than 100 µM. For the same compound, the TGI [13] was greater than 100 µM, the TGI [14] was greater than 100 µM and the TGI [17] was greater than 100 µM. For the same compound, the TGI [18] was greater than 100 µM, the TGI [19] was greater than 100 µM and the TGI [20] was greater than 100 µM. It also gave a TGI [21] greater than 100 µM, a TGI [22] greater than 100 µM and a TGI [23] greater than 100 µM. It also gave a TGI [24] greater than 100 µM, a TGI [25] greater than 100 µM and a TGI [26] greater than 100 µM. For the same compound, the TGI [28] was greater than 100 µM, the TGI [29] was greater than 100 µM and the TGI [30] was greater than 100 µM. The TGI [31] was greater than 100 µM, the TGI [32] was greater than 100 µM and the TGI [33] was greater than 100 µM. The TGI [34] was greater than 100 µM, the TGI [35] was greater than 100 µM and the TGI [36] was greater than 100 µM. For the same compound, the TGI [37] was greater than 100 µM, the TGI [39] was greater than 100 µM and the TGI [41] was greater than 100 µM. The TGI [42] was greater than 100 µM, the TGI [43] was greater than 100 µM and the TGI [44] was greater than 100 µM. It also gave a TGI [45] greater than 100 µM, a TGI [46] greater than 100 µM and a TGI [59] greater than 100 µM. It also gave a TGI [47] greater than 100 µM, a TGI [49] greater than 100 µM and a TGI [50] greater than 100 µM. The TGI [51] was greater than 100 µM, the TGI [52] was greater than 100 µM and the TGI [53] was greater than 100 µM. For the same compound, the TGI [54] was greater than 100 µM, the TGI [55] was greater than 100 µM and the TGI [56] was greater than 100 µM. For the same compound, the TGI [57] was greater than 100 µM and the TGI [58] was greater than 100 µM.
